Results reported in patent US9980976B2, “Use of REDD1 inhibitors to dissociate therapeutic and adverse atrophogenic effects of glucocorticoid receptor agonists” (Northwestern University, priority 2015, dated 2018).

Tests used:
GR = details: Schäcke et al, 2009; cited from earlier work
[1] = system: organotypic raft cultures of primary human epidermal keratinocytes (NHEK); test: Hypoplasia/proliferation in 3-D organotypic raft cultures (ORC) of NHEK; assay type: cell-based; details: pGIPZ-infected ORCs, 7-day treatment with CBP 5 μM
Method: (§1) Three-dimensional (3-D) organotypic raft cultures (ORC) of human epidermis were made as described in Getsios et al (2009). Briefly, neonatal human epidermal keratinocytes (NHEK) were infected with shRNA- and pGIPZ-expressing lentiviruses followed, 48 h later, by selection for puromycin (2 μg/ml) resistance. Selected keratinocyte cultures were reseeded onto collagen gels with embedded J2-3T3 fibroblasts and cultured at the air-liquid interface as previously described for 3 days to allow the initial phase of epidermis formation. The standard ORC medium contains high 5×10^−7 M hydrocortisone. […]
Quantification of the epidermal width and number of basal keratinocytes (as the readouts for skin atrophy and hypoplasia of raft epidermis) was performed in dorsal skin and ORC sections stained with H&E. The number of dermal cells was determined on sections stained with Masson's trichrome in the upper (papillary) dermis that is distinguishable from the lower (reticular) dermis (Driskell et al, 2013). At least 10 individual fields per slide with at least three samples in each experimental group were counted using Axioplan2 microscope software (Carl Zeiss). […]
The numbers of BrdU+, p63+, and total number of basal keratinocytes were evaluated in 10 fields of view in each skin/ORC sample under the microscope. […]

human skin = test: Skin atrophy in human volunteers treated with topical glucocorticoid; assay type: in vivo; details: 0.05% cream daily, 2-week treatment
Method: (§2) Glucocorticoid CBP was applied topically as a 0.05% cream to the skin of right arm of healthy human volunteers (age 32-65) once or every 24 h for 2 weeks. Untreated left arm skin was used as control. Whole human skin samples were used for the molecular biological studies.
Quantification of the epidermal width and number of basal keratinocytes (as the readouts for skin atrophy and hypoplasia of raft epidermis) was performed in dorsal skin and ORC sections stained with H&E. The number of dermal cells was determined on sections stained with Masson's trichrome in the upper (papillary) dermis that is distinguishable from the lower (reticular) dermis (Driskell et al, 2013). At least 10 individual fields per slide with at least three samples in each experimental group were counted using Axioplan2 microscope software (Carl Zeiss). All measurements are presented as % to corresponding control.

REDD1 [2] = test: REDD1 expression in organotypic raft cultures (Q-PCR, Western blot); assay type: cell-based, human; details: control pGIPZ ORCs, short-term (6 h) and chronic (7 days) CBP
Method: as §1, with “hydrocortisone. In our experiments, ORC were cultured in the medium with 10^−8 M hydrocortisone during first 3 days and then were treated with glucocorticoid CBP (5×10^−6 M) or vehicle control (0.05% DMSO) for 7 days. Rafts were treated with BrdU (10^−7 M) 1 h before harvesting and fixed in formalin.” for “hydrocortisone.”
Total RNA from murine epidermis, whole human skin, and cell cultures was isolated with RiboPure kit (Ambion, Life Technologies, Grand Island, N.Y., USA). […] The gene expression was assessed using semi-quantitative two-step RT-PCR and quantitative Q-PCR. […] For semi-quantitative PCRs, Taq DNA polymerase (Promega) was used, and PCR products were separated on 1.5% agarose gel and visualized using automated imaging system (Bio-Rad, Hercules, Calif., USA). […]

REDD1 [3] = test: REDD1 mRNA expression in human skin (RT-PCR); assay type: in vivo; details: human skin treated with CBP 0.05% cream for 24 h-2 weeks
Method: as §2
Total RNA from murine epidermis, whole human skin, and cell cultures was isolated with RiboPure kit (Ambion, Life Technologies, Grand Island, N.Y., USA). Total RNA from murine s.c. adipose was isolated with RNeasy Lipid Tissue Kit (Qiagen, Valencia, Calif., USA). The RNA samples were treated with TURBOT™ DNase (Ambion). The gene expression was assessed using semi-quantitative two-step RT-PCR and quantitative Q-PCR. Reverse transcription was performed using 1 μg RNA, random hexamers, and M-MLV reverse transcriptase (Invitrogen, Life Technologies), according to manufacturer instructions. The gene-specific primers were designed with NCBI Primer-BLAST (data not shown, see Baida et al., EMBO, 2015, at Supplementary Table S4). Q-PCR with SYBR Green detection was performed on the Applied Biosystems® 7000 Real-Time PCR instrument (Life Technologies). […] For semi-quantitative PCRs, Taq DNA polymerase (Promega) was used, and PCR products were separated on 1.5% agarose gel and visualized using automated imaging system (Bio-Rad, Hercules, Calif., USA). […]

Row | SMILES | anti-inflammatory effect (GR) | skin atrophy (GR) | decrease in number and proliferation (BrdU incorporation) of basal keratinocytes [1] | negative effect on basal keratinocytes (compared with FA-treated mice) (human skin) | REDD1 mRNA and protein (REDD1 [2]) | REDD1 mRNA (REDD1 [3])
1 | Cc1ccc2c(NC[C@](O)(CC(C)(C)c3cc(F)cc4c3OCC4)C(F)(F)F)cccc2n1 [ZK245186/mapracorat] | preserve the anti-inflammatory effect of glucocorticoids | do not induce skin atrophy |  |  |  | 
2 | CCC(=O)O[C@]1(C(=O)CCl)[C@@H](C)C[C@H]2[C@@H]3CCC4=CC(=O)C=C[C@]4(C)[C@@]3(F)[C@@H](O)C[C@@]21C [CBP, clobetasol propionate] |  |  | 25-40% | less pronounced | induced REDD1 mRNA and protein | strongly up-regulated
